Values joined by “and” are separate entries in the source; they are usually repeats but may differ in a detail not shown here. Identical values can stand only once.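 Cells were grown in 96-well plates and exposed to each compound for 48 hours at five concentrations; endpoints were interpolated linearly between bracketing concentrations, or set to the highest concentration if not reached. GI50: concentration for 50% inhibition of growth. Definition used: TGI = concentration required for complete inhibition of growth.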
The compounds below were run on SNB-19 CNS (assay: inhibition of tumour cell growth, NCI panel, 48 h).

SMILES | GI50 [µM] | TGI
N=c1c2c(-c3ccccc3)c(-c3ccccc3)n(Cc3ccccc3)c2ncn1C1CCC(O)CC1 (configuration not stated) | 1.21 | 17.9 µM
O=c1c(F)cn(Cc2ccc(C34CC5CC(CC(C5)C3)C4)c(O)c2)c(=O)n1Cc1ccc(C23CC4CC(CC(C4)C2)C3)c(O)c1 | 27.5 | 57.1 µM
CCOC(=O)Nc1cc2c(c(N)n1)N=C(c1ccccc1)CO2 | 0.414 | 25 µM
CC1CC2CCCC(O)=C2C(=O)O1 (configuration not stated) | – | > 64.8 µM
CC(C)(/C=C(\C#N)C(=O)N1CCC[C@@H](n2nc(-c3ccc(Oc4ccccc4)cc3F)c3c(N)ncnc32)C1)N1CCN(C2COC2)CC1 | 8.09 | 20.6 µM
O=c1oc2ccc(-c3ccc(F)cc3F)cc2c(=O)n1-c1cccc(C(F)(F)F)c1 | 1.83 | > 100 µM
O=C(Cc1ccc(F)c(Cl)c1)Nc1cc(C2(C(F)(F)F)CC2)nn1CC1CCCCC1 | 4.78 | > 15 µM
NNC(=O)CNc1cccc(Br)c1 | – | > 100 µM
NC(N)=NCCCC(=O)O | – | > 100 µM
CCN1CCN(c2cc(C)c3cc(NC(=O)c4ccc(OC)c(OC)c4)ccc3n2)CC1 | > 61 | > 100 µM
COC(=O)c1c2c(c(C)[n+]([O-])c1C)C(=O)C=C(NCc1ccc(F)cc1)C2=O | 1.38 | 2.83 µM
CCCC(=O)Nc1cn(COC)c(C(=O)N2C[C@@H]3C[C@]34C2=CC(=O)c2[nH]cc(C)c24)n1 | 10.7 | 50 µM and 30.9 µM
CC(=O)Nc1ccc(-c2csc(Nc3cccc(-c4csc(C)n4)c3)n2)cc1 | 1.6 | > 50 µM

Each compound was assayed on RXF 393 renal (assay: inhibition of tumour cell growth, NCI panel, 48 h).

SMILES | GI50 [µM] | TGI
CC1(C)OC2C(CO[Si](C)(C)C(C)(C)C)OC(n3c(I)c(C#C[Si](C)(C)C)c(=O)[nH]c3=O)C2O1 (configuration not stated) | 2.51 | 9.1 µM
CN(C)CC[C@H](CSc1ccccc1)Nc1ccc(S(=O)(=O)NC(=O)c2ccc(N3CCN(Cc4ccccc4-c4ccc(Cl)cc4)CC3)cc2)cc1[N+](=O)[O-] | 0.918 | 4.27 µM
COc1ccc(-c2ccc(=O)oc2C#Cc2cc(OC)c(OC)c(OC)c2)cc1O | 0.0813 | 2.39 µM
O=C(/C=C/c1ccc[nH]1)c1ccc(-n2ccc(C(F)(F)F)n2)cc1 | 3.61 | > 31.2 µM
O=C(c1ccco1)c1c(C(F)(F)F)nc2ccc(Cl)cc2[n+]1[O-] | 70.3 | > 100 µM
Clc1cc2c(c(CSc3nc4ccccc4n4cccc34)c1)OCOC2 | 15.2 | 61.9 µM
CN1CCN(c2ccc(Nc3cc(-c4cccc(-n5ccc6cc(C7CC7)cc(F)c6c5=O)c4CO)cn(C)c3=O)nc2)CC1 | 1.9 | 5.37 µM
COc1ccc2nc3ccccc3c(NCc3ccc(F)cc3)c2c1 | 1.13 | 3.1 µM
COc1cc(N=Nc2ccc(O)c3ncccc23)c2ncccc2c1 | 2.72 | 28.2 µM
CCn1c(O)c(/C=N/NC(=O)C(C)c2ccc(CC(C)C)cc2)sc1=S (configuration not stated) | 0.222 | 0.654 µM
C[C@@H]1C[C@@H]([C@@H](CC2CC(=O)NC(=O)C2)OC(=O)CC(=O)c2ccccc2)C(=O)[C@@H](C)C1 | 0.496 | 25.1 µM
Cc1nc(Nc2cccnc2)sc1C(=O)/C=C/c1ccc(F)cc1 | 3.01 | 8.31 µM
N=c1c2c(-c3ccccc3)c(-c3ccccc3)n(Cc3ccccc3)c2ncn1C1CCC(O)CC1 (configuration not stated) | 0.374 | 2.4 µM
O=c1c(F)cn(Cc2ccc(C34CC5CC(CC(C5)C3)C4)c(O)c2)c(=O)n1Cc1ccc(C23CC4CC(CC(C4)C2)C3)c(O)c1 | 6.5 | > 100 µM
CCOC(=O)Nc1cc2c(c(N)n1)N=C(c1ccccc1)CO2 | 0.275 | 32.1 µM
CC1CC2CCCC(O)=C2C(=O)O1 (configuration not stated) | – | > 100 µM
CC(C)(/C=C(\C#N)C(=O)N1CCC[C@@H](n2nc(-c3ccc(Oc4ccccc4)cc3F)c3c(N)ncnc32)C1)N1CCN(C2COC2)CC1 | 2.31 | 7.66 µM
O=c1oc2ccc(-c3ccc(F)cc3F)cc2c(=O)n1-c1cccc(C(F)(F)F)c1 | 1.23 | 4.14 µM
O=C(Cc1ccc(F)c(Cl)c1)Nc1cc(C2(C(F)(F)F)CC2)nn1CC1CCCCC1 | 2.37 | 10.1 µM
NNC(=O)CNc1cccc(Br)c1 | – | > 100 µM
NC(N)=NCCCC(=O)O | – | > 100 µM
CCN1CCN(c2cc(C)c3cc(NC(=O)c4ccc(OC)c(OC)c4)ccc3n2)CC1 | 2.81 | > 100 µM
COC(=O)c1c2c(c(C)[n+]([O-])c1C)C(=O)C=C(NCc1ccc(F)cc1)C2=O | 1.43 | 2.93 µM
CCCC(=O)Nc1cn(COC)c(C(=O)N2C[C@@H]3C[C@]34C2=CC(=O)c2[nH]cc(C)c24)n1 | 2.21 | 16.5 µM and 4.67 µM
CC(=O)Nc1ccc(-c2csc(Nc3cccc(-c4csc(C)n4)c3)n2)cc1 | 2.01 | > 12.9 µM

Each compound was assayed on UACC-62 melanoma (assay: inhibition of tumour cell growth, NCI panel, 48 h).

SMILES | GI50 [µM] | TGI
CC1(C)OC2C(CO[Si](C)(C)C(C)(C)C)OC(n3c(I)c(C#C[Si](C)(C)C)c(=O)[nH]c3=O)C2O1 (configuration not stated) | 21.5 | 50.5 µM
CN(C)CC[C@H](CSc1ccccc1)Nc1ccc(S(=O)(=O)NC(=O)c2ccc(N3CCN(Cc4ccccc4-c4ccc(Cl)cc4)CC3)cc2)cc1[N+](=O)[O-] | 3.51 | 20 µM
COc1ccc(-c2ccc(=O)oc2C#Cc2cc(OC)c(OC)c(OC)c2)cc1O | 0.35 | > 100 µM
O=C(/C=C/c1ccc[nH]1)c1ccc(-n2ccc(C(F)(F)F)n2)cc1 | > 100 | > 100 µM
O=C(c1ccco1)c1c(C(F)(F)F)nc2ccc(Cl)cc2[n+]1[O-] | > 100 | > 100 µM
Clc1cc2c(c(CSc3nc4ccccc4n4cccc34)c1)OCOC2 | 76.5 | > 100 µM
CN1CCN(c2ccc(Nc3cc(-c4cccc(-n5ccc6cc(C7CC7)cc(F)c6c5=O)c4CO)cn(C)c3=O)nc2)CC1 | 2.4 | 6.63 µM
COc1ccc2nc3ccccc3c(NCc3ccc(F)cc3)c2c1 | 3.48 | 10.2 µM
COc1cc(N=Nc2ccc(O)c3ncccc23)c2ncccc2c1 | 2.4 | 7.68 µM
CCn1c(O)c(/C=N/NC(=O)C(C)c2ccc(CC(C)C)cc2)sc1=S (configuration not stated) | 0.435 | 15 µM
C[C@@H]1C[C@@H]([C@@H](CC2CC(=O)NC(=O)C2)OC(=O)CC(=O)c2ccccc2)C(=O)[C@@H](C)C1 | 0.915 | > 100 µM
Cc1nc(Nc2cccnc2)sc1C(=O)/C=C/c1ccc(F)cc1 | 1.99 | 4.99 µM
N=c1c2c(-c3ccccc3)c(-c3ccccc3)n(Cc3ccccc3)c2ncn1C1CCC(O)CC1 (configuration not stated) | 0.534 | 7.06 µM
O=c1c(F)cn(Cc2ccc(C34CC5CC(CC(C5)C3)C4)c(O)c2)c(=O)n1Cc1ccc(C23CC4CC(CC(C4)C2)C3)c(O)c1 | 15.9 | 29.5 µM
CCOC(=O)Nc1cc2c(c(N)n1)N=C(c1ccccc1)CO2 | 0.359 | 31.3 µM
CC1CC2CCCC(O)=C2C(=O)O1 (configuration not stated) | – | > 100 µM
CC(C)(/C=C(\C#N)C(=O)N1CCC[C@@H](n2nc(-c3ccc(Oc4ccccc4)cc3F)c3c(N)ncnc32)C1)N1CCN(C2COC2)CC1 | 3.04 | 14.3 µM
O=c1oc2ccc(-c3ccc(F)cc3F)cc2c(=O)n1-c1cccc(C(F)(F)F)c1 | 0.382 | 2.79 µM
O=C(Cc1ccc(F)c(Cl)c1)Nc1cc(C2(C(F)(F)F)CC2)nn1CC1CCCCC1 | 3.37 | 11.5 µM
NNC(=O)CNc1cccc(Br)c1 | – | > 100 µM
NC(N)=NCCCC(=O)O | – | > 100 µM
CCN1CCN(c2cc(C)c3cc(NC(=O)c4ccc(OC)c(OC)c4)ccc3n2)CC1 | > 39.4 | > 64.8 µM
COC(=O)c1c2c(c(C)[n+]([O-])c1C)C(=O)C=C(NCc1ccc(F)cc1)C2=O | 0.175 | 1.16 µM
CCCC(=O)Nc1cn(COC)c(C(=O)N2C[C@@H]3C[C@]34C2=CC(=O)c2[nH]cc(C)c24)n1 | 12.4 | 16.8 µM and 24.9 µM
CC(=O)Nc1ccc(-c2csc(Nc3cccc(-c4csc(C)n4)c3)n2)cc1 | 0.139 | 1.51 µM
